Test results published in PubChem BioAssay (NCI).
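Test compounds were applied to cells in 96-well plates for 48 hours at 5 doses. TGI denotes the concentration required for complete inhibition of growth.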

Assays:
Test in all cases: growth of human tumour cells (NCI), 48 h
DMS 114 small cell lung = test system: DMS 114 small cell lung
SNB-19 CNS = test system: SNB-19 CNS
NCI-H522 lung = test system: NCI-H522 lung
SW-620 colon = test system: SW-620 colon
U251 CNS = test system: U251 CNS
UACC-257 melanoma = test system: UACC-257 melanoma
OVCAR-4 ovarian = test system: OVCAR-4 ovarian
A549 NSCLC = test system: A549 NSCLC
SF-539 CNS = test system: SF-539 CNS
DU-145 prostate = test system: DU-145 prostate
NCI-H23 lung = test system: NCI-H23 lung
HOP-92 NSCLC = test system: HOP-92 NSCLC
MDA-MB-231 breast = test system: MDA-MB-231 breast
CAKI-1 renal = test system: CAKI-1 renal
MALME-3M melanoma = test system: MALME-3M melanoma
EKVX NSCLC = test system: EKVX NSCLC
BT-549 breast = test system: BT-549 breast
NCI-H460 lung = test system: NCI-H460 lung
T-47D breast = test system: T-47D breast
SK-OV-3 ovarian = test system: SK-OV-3 ovarian
HCC-2998 colon = test system: HCC-2998 colon
HT29 colon = test system: HT29 colon
SNB-78 CNS = test system: SNB-78 CNS
ACHN renal = test system: ACHN renal
K-562 leukemia = test system: K-562 leukemia
LOX IMVI melanoma = test system: LOX IMVI melanoma
TK-10 renal = test system: TK-10 renal
DMS 273 small cell lung = test system: DMS 273 small cell lung
A498 renal = test system: A498 renal
786-0 renal = test system: 786-0 renal
XF 498 CNS = test system: XF 498 CNS
SF-268 CNS = test system: SF-268 CNS
MDA-N = test system: MDA-N
SNB-75 CNS = test system: SNB-75 CNS
DLD-1 colon = test system: DLD-1 colon
LXFL 529 NSCLC = test system: LXFL 529 NSCLC
UACC-62 melanoma = test system: UACC-62 melanoma
MCF7 breast = test system: MCF7 breast
RPMI-8226 leukemia = test system: RPMI-8226 leukemia
SF-295 CNS = test system: SF-295 CNS
SK-MEL-28 melanoma = test system: SK-MEL-28 melanoma
M14 melanoma = test system: M14 melanoma
MDA-MB-435 = test system: MDA-MB-435
OVCAR-5 ovarian = test system: OVCAR-5 ovarian
HS 578T breast = test system: HS 578T breast
COLO 205 colon = test system: COLO 205 colon
SN12C renal = test system: SN12C renal
KM12 colon = test system: KM12 colon
NCI-H226 lung = test system: NCI-H226 lung
PC-3 prostate = test system: PC-3 prostate
OVCAR-3 ovarian = test system: OVCAR-3 ovarian
IGROV1 ovarian = test system: IGROV1 ovarian
MOLT-4 leukemia = test system: MOLT-4 leukemia
HL-60(TB) leukemia = test system: HL-60(TB) leukemia
HOP-18 NSCLC = test system: HOP-18 NSCLC
HCT-15 colon = test system: HCT-15 colon
SK-MEL-2 melanoma = test system: SK-MEL-2 melanoma
SR leukemia = test system: SR leukemia
NCI/ADR-RES ovarian = test system: NCI/ADR-RES ovarian
SK-MEL-5 melanoma = test system: SK-MEL-5 melanoma
M19-MEL melanoma = test system: M19-MEL melanoma
RXF-631 renal = test system: RXF-631 renal
CCRF-CEM leukemia = test system: CCRF-CEM leukemia
UO-31 renal = test system: UO-31 renal
HCT-116 colon = test system: HCT-116 colon
RXF 393 renal = test system: RXF 393 renal
KM20L2 colon = test system: KM20L2 colon
OVCAR-8 ovarian = test system: OVCAR-8 ovarian
HOP-62 NSCLC = test system: HOP-62 NSCLC

Q: For `CNC(=O)/C(=C/c1ccc(OC)cc1)c1cc(OC)c(OC)c(OC)c1`, which TGI (DMS 114 small cell lung) is on record?
A: > 21.5 µM

Q: And the TGI (SNB-19 CNS)?
A: 54.8 µM

Q: And the TGI (NCI-H522 lung)?
A: 4.39 µM

Q: What about the TGI (SW-620 colon) of the same compound?
A: > 100 µM

Q: And the TGI (U251 CNS)?
A: 23.1 µM

Q: And the TGI (UACC-257 melanoma)?
A: > 90 µM

Q: What about the TGI (OVCAR-4 ovarian) of the same compound?
A: 99.7 µM

Q: And the TGI (A549 NSCLC)?
A: > 100 µM

Q: And the TGI (SF-539 CNS)?
A: 3.58 µM

Q: What about the TGI (DU-145 prostate) of the same compound?
A: > 43 µM

Q: What about the TGI (NCI-H23 lung) of the same compound?
A: 32.6 µM

Q: And the TGI (HOP-92 NSCLC)?
A: > 60.2 µM

Q: What about the TGI (MDA-MB-231 breast) of the same compound?
A: > 77.9 µM

Q: And the TGI (CAKI-1 renal)?
A: > 100 µM

Q: What about the TGI (MALME-3M melanoma) of the same compound?
A: > 54.5 µM

Q: What about the TGI (EKVX NSCLC) of the same compound?
A: > 100 µM

Q: What about the TGI (BT-549 breast) of the same compound?
A: > 100 µM

Q: And the TGI (NCI-H460 lung)?
A: 47.5 µM

Q: And the TGI (T-47D breast)?
A: > 100 µM

Q: And the TGI (SK-OV-3 ovarian)?
A: 29 µM

Q: What about the TGI (HCC-2998 colon) of the same compound?
A: 17.7 µM

Q: What about the TGI (HT29 colon) of the same compound?
A: 17.5 µM

Q: What about the TGI (SNB-78 CNS) of the same compound?
A: > 100 µM

Q: And the TGI (ACHN renal)?
A: > 100 µM

Q: What about the TGI (K-562 leukemia) of the same compound?
A: > 80.9 µM

Q: What about the TGI (LOX IMVI melanoma) of the same compound?
A: > 100 µM

Q: What about the TGI (TK-10 renal) of the same compound?
A: > 100 µM

Q: And the TGI (DMS 273 small cell lung)?
A: > 100 µM

Q: And the TGI (A498 renal)?
A: > 43.4 µM

Q: And the TGI (786-0 renal)?
A: > 100 µM

Q: What about the TGI (XF 498 CNS) of the same compound?
A: 65.8 µM

Q: What about the TGI (SF-268 CNS) of the same compound?
A: > 84.7 µM

Q: What about the TGI (MDA-N) of the same compound?
A: 0.71 µM

Q: What about the TGI (SNB-75 CNS) of the same compound?
A: 4.4 µM

Q: What about the TGI (DLD-1 colon) of the same compound?
A: > 100 µM

Q: And the TGI (LXFL 529 NSCLC)?
A: > 100 µM

Q: What about the TGI (UACC-62 melanoma) of the same compound?
A: > 48.6 µM

Q: What about the TGI (MCF7 breast) of the same compound?
A: > 51.4 µM

Q: What about the TGI (RPMI-8226 leukemia) of the same compound?
A: > 100 µM

Q: What about the TGI (SF-295 CNS) of the same compound?
A: 3.02 µM

Q: And the TGI (SK-MEL-28 melanoma)?
A: > 100 µM

Q: What about the TGI (M14 melanoma) of the same compound?
A: > 34.6 µM

Q: What about the TGI (MDA-MB-435) of the same compound?
A: 2.42 µM

Q: And the TGI (OVCAR-5 ovarian)?
A: > 93.3 µM

Q: What about the TGI (HS 578T breast) of the same compound?
A: 5.71 µM

Q: And the TGI (COLO 205 colon)?
A: 7.36 µM

Q: And the TGI (SN12C renal)?
A: 98.1 µM

Q: What about the TGI (KM12 colon) of the same compound?
A: > 83.9 µM

Q: What about the TGI (NCI-H226 lung) of the same compound?
A: > 53.7 µM

Q: And the TGI (PC-3 prostate)?
A: > 100 µM

Q: And the TGI (OVCAR-3 ovarian)?
A: 2.5 µM

Q: What about the TGI (IGROV1 ovarian) of the same compound?
A: > 100 µM

Q: What about the TGI (MOLT-4 leukemia) of the same compound?
A: > 100 µM

Q: And the TGI (HL-60(TB) leukemia)?
A: 8.01 µM

Q: What about the TGI (HOP-18 NSCLC) of the same compound?
A: > 100 µM

Q: What about the TGI (HCT-15 colon) of the same compound?
A: > 100 µM

Q: And the TGI (SK-MEL-2 melanoma)?
A: > 100 µM

Q: What about the TGI (SR leukemia) of the same compound?
A: > 31.1 µM

Q: What about the TGI (NCI/ADR-RES ovarian) of the same compound?
A: > 100 µM

Q: And the TGI (SK-MEL-5 melanoma)?
A: > 36.6 µM

Q: What about the TGI (M19-MEL melanoma) of the same compound?
A: > 100 µM

Q: What about the TGI (RXF-631 renal) of the same compound?
A: > 100 µM

Q: What about the TGI (CCRF-CEM leukemia) of the same compound?
A: > 100 µM

Q: And the TGI (UO-31 renal)?
A: > 86 µM

Q: And the TGI (HCT-116 colon)?
A: > 72.4 µM

Q: What about the TGI (RXF 393 renal) of the same compound?
A: 11.8 µM

Q: What about the TGI (KM20L2 colon) of the same compound?
A: 2.72 µM

Q: And the TGI (OVCAR-8 ovarian)?
A: 55.3 µM

Q: And the TGI (HOP-62 NSCLC)?
A: > 100 µM

Q: What does the source list for `OCCSCC/C(=N\N=C(/CCSCCO)c1ccccc1)c1ccccc1`?
A: TGI (DMS 114 small cell lung): > 100 µM; TGI (SNB-19 CNS): > 100 µM; TGI (SW-620 colon): > 100 µM; TGI (U251 CNS): > 100 µM; TGI (UACC-257 melanoma): > 100 µM; TGI (OVCAR-4 ovarian): > 100 µM; TGI (A549 NSCLC): > 100 µM; TGI (SF-539 CNS): > 100 µM; TGI (NCI-H23 lung): > 100 µM; TGI (HOP-92 NSCLC): > 100 µM; TGI (CAKI-1 renal): > 100 µM; TGI (MALME-3M melanoma): > 100 µM; TGI (EKVX NSCLC): > 100 µM; TGI (NCI-H460 lung): > 100 µM; TGI (SK-OV-3 ovarian): > 100 µM; TGI (HCC-2998 colon): > 100 µM; TGI (HT29 colon): > 100 µM; TGI (SNB-78 CNS): > 100 µM; TGI (ACHN renal): > 100 µM; TGI (K-562 leukemia): > 100 µM; TGI (LOX IMVI melanoma): > 100 µM; TGI (TK-10 renal): > 100 µM; TGI (786-0 renal): > 100 µM; TGI (XF 498 CNS): > 100 µM; TGI (SF-268 CNS): > 100 µM; TGI (DLD-1 colon): > 100 µM; TGI (LXFL 529 NSCLC): > 100 µM; TGI (UACC-62 melanoma): > 100 µM; TGI (RPMI-8226 leukemia): > 100 µM; TGI (SF-295 CNS): > 100 µM; TGI (SK-MEL-28 melanoma): > 100 µM; TGI (M14 melanoma): > 100 µM; TGI (OVCAR-5 ovarian): > 100 µM; TGI (COLO 205 colon): > 100 µM; TGI (SN12C renal): > 100 µM; TGI (KM12 colon): > 100 µM; TGI (NCI-H226 lung): > 100 µM; TGI (OVCAR-3 ovarian): > 100 µM; TGI (IGROV1 ovarian): > 100 µM; TGI (MOLT-4 leukemia): > 100 µM; TGI (HL-60(TB) leukemia): > 100 µM; TGI (HOP-18 NSCLC): > 100 µM; TGI (HCT-15 colon): > 100 µM; TGI (SK-MEL-2 melanoma): > 100 µM; TGI (SK-MEL-5 melanoma): > 100 µM; TGI (M19-MEL melanoma): > 100 µM; TGI (RXF-631 renal): > 100 µM; TGI (CCRF-CEM leukemia): > 100 µM; TGI (UO-31 renal): > 100 µM; TGI (RXF 393 renal): 99.7 µM; TGI (KM20L2 colon): > 100 µM; TGI (OVCAR-8 ovarian): > 100 µM; TGI (HOP-62 NSCLC): > 100 µM
